In patent EP4011354A1, “NEW COSMETICS SOLVENTS BASED ON TWO DIFFERENT COMPONENTS” (priority 2020, dated 2022):
≈ marks a conversion by molar mass, not a printed value. Like-named read-outs stand apart in the source and are kept apart here.

What was measured:
[1] = Solubility of actives in water and in eutectic solvents; type: physicochemical; settings: for solubility: water
Text: Following is shown some examples for actives solubilization: • Dihydromyricetin • ∘ Solubility in Water 0.09% wt. • ∘ Solubility in Betaine:Urea 2:3 > 0.5% wt • ∘ Solubility in Betaine:Glucose 1:1 > 0.5% wt • ∘ Solubility in Betaine:Malic Acid 1:1 > 0.5% wt • ∘ Solubility in Proline:Sorbitol 1:1 > 0.5% wt • ∘ • Folic Acid • ∘ Solubility in Water 0.00016% wt. • ∘ Solubility in Betaine:Glycerol 1:3 > 1% wt • Thiamidol • ∘ Solubility in Water 0.017% wt. • ∘ Solubility in Betaine:Glycerol 1:3 > 2% wt

[2] = Stability of 5 % vitamin C solutions in eutectic solvents versus water; type: physicochemical; settings: 40 degrees, after 16 weeks
[3] = In vivo sweat reduction test; settings: Betaine-Glycerine (molar ratios 1:3), 10,5 wt.% calcium lactate, 37,5 wt.% water (figure 2)
[4] = Liberation of actives and dermal penetration (pig-skin penetration test); settings: 0,5% solution in betaine : malic acid (1:1 + 20% water; NADES)
Experimental: Actives liberation and dermal penetration behavior were evaluated for a 0,5% caffeine solution in an inventive eutectic solvent, betaine : malic acid (1:1 + 20% water; NADES).

Nc1nc2ncc(CNc3ccc(C(=O)N[C@@H](CCC(=O)O)C(=O)O)cc3)nc2c(=O)[nH]1 [Folic Acid]
Solubility in Betaine:Glycerol 1:3 [1]: > 1 % wt
solubility ([1]; read-out: Solubility in Water): 1.6 µg/mL (≈ 3.62 µM)

CC(C)C(=O)Nc1nc(-c2ccc(O)cc2O)cs1 [Thiamidol, Isobutylamido Thiazolyl Resorcinol]
Solubility in Betaine:Glycerol 1:3 [1]: > 2 % wt
solubility ([1]; read-out: Solubility in Water): 170 µg/mL (≈ 611 µM)

O=C1O[C@H]([C@@H](O)CO)C(O)=C1O [vitamin C, ascorbic acid]
remaining at 2688 h ([2]; in the eutectic solvents (table 1, B-F), read-out: active still intact): ≤ 82%
remaining at 2688 h ([2]; water, aqueous solution, read-out: initial vitamin C still measurable): 10%

O=C1c2c(O)cc(O)cc2O[C@H](c2cc(O)c(O)c(O)c2)[C@H]1O [Dihydromyricetin]
Solubility in Betaine:Glucose 1:1 [1]: > 0.5 % wt
Solubility in Betaine:Malic Acid 1:1 [1]: > 0.5 % wt
Solubility in Betaine:Urea 2:3 [1]: > 0.5 % wt
Solubility in Proline:Sorbitol 1:1 [1]: > 0.5 % wt
solubility [1]: 900 µg/mL (≈ 2810 µM)

CC(O)C(=O)O (centres unmarked) [calcium lactate]
sweat reduction [3]: sweat reduction

Cn1c(=O)c2c(ncn2C)n(C)c1=O [caffeine]
dermal absorption ([4]; compared to the water solution): lower
liberation over time ([4]; compared to the water solution (figure 4)): surprisingly lower
